Structures can show the parent of a compound that is named as a salt. One block for each molecule: values may come before it.
Key:
[1] = Stability/conversion of esters in rat liver S9; assay type: in vitro ADME
Description: (§1) The human intestinal S9 with the absence of PMSF, human liver S9, rat intestinal S9, and rat liver S9 preparations were obtained from Xenotech (Lenexa, Kans.). The 500-μL incubation solution contained 0.8 mg/mL of enzyme (or no enzyme for buffer stability), 10 μM of test compounds in 100 mM of HEPES buffer, pH 7.4. The hydrolysis reactions were conducted in a 1-mL glass insert (Analytical Sales, Pompton Plains, N.J.) in a shake water bath at 37° C. At 0, 2, 5, 10, 15, 30 and 60 min, the reaction was terminated by pipetting 50 μL incubate to a 96 DeepWell plate (Thermo Fisher Scientific, Rochester, N.Y.) containing 100 μL of acetonitrile with 250 ng/mL of Carbutamide (Sigma-Aldrich, St. Louis, Miss.) as the internal standard. The crashed solutions were then vortexed well followed by centrifuge at 4000 rpm for 15 min at 4° C. The extract was transferred to a new 96 DeepWell plate for LC-MS/MS analysis.
(§2) LC-MS/MS analysis was done using an AB Sciex QTrap 6500 mass spectrometer under positive ionization mode, coupled to a Schimadzu Nexera LC system.
(§3) A Waters Atlantis T3 (3 μm, 3.0×50 mm) column was used for separation. The mobile phase consisted 0.1% formic acid in water (A) and 0.1% formic acid in acetonitrile (B) with a flow rate set at 1.2 mL/min. For the prodrug analysis, the Multiple Reaction Monitoring (MRM) specific for each compound was set up so that both prodrug and its hydrolyzed active can be monitored simultaneously.
(§4) Half-lives listed are based on disappearance of starting ester.

[2] = Stability in pH 7.4 buffer (no enzyme); assay type: physicochemical; conditions: read-out: T1/2 pH 7.4 Buffer
Description: as §1, §2, §3, §4

[3] = Stability/conversion of esters in human liver S9; assay type: in vitro ADME
Description: as §1, §2, §3, §4

[4] = Stability/conversion of esters in human intestinal S9; assay type: in vitro ADME
Description: as §1, §2, §3, §4

[5] = Stability/conversion of esters in rat intestinal S9; assay type: in vitro ADME
Description: as §1, §2, §3, §4

[6] = target: TEM-1 (Class A beta-lactamase) (Escherichia coli, UniProt P62593); test: Inhibition of beta-lactamase enzymes (nitrocefin hydrolysis), TEM-1; assay type: biochemical; conditions: read-out: Class A TEM-1 60 min IC50, nitrocefin 100 μM
TEM-1 (Class A beta-lactamase), sequence (P62593 whole entry, looked up, species assumed): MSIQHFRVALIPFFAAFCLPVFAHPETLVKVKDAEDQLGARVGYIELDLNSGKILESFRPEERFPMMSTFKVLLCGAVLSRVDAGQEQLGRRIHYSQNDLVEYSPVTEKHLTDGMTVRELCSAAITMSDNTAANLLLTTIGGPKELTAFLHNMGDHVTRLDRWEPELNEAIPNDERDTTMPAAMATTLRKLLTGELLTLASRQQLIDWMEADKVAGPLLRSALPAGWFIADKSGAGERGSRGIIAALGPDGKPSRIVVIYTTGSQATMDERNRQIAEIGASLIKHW
Description: (§5) A buffer consisting of 0.1 M sodium phosphate (pH 7.0), 10 mM NaHCO3, and 0.005% Triton X-100 was used for all enzymes. The chromogenic substrate nitrocefin (SynGene, Bangalore, India) was used at 100 μM. Enzyme activity was monitored by the 490 nm absorbance increase upon nitrocefin hydrolysis. Assays were performed in clear polystyrene 384-well plates (Greiner Bio-One, Monroe, N.C.). Absorbance was measured for 1 hour at 30-s intervals using a Spectramax absorbance plate reader (Molecular Devices, Sunnyvale, Calif.). Measurement of beta-lactamase inhibition by INHIBITOR employed serial 3-fold dilutions of the inhibitor in assay buffer, ranging from 100 μM to 62.7 pM. A background absorbance progress curve for a control lacking enzyme and inhibitor was subtracted from each progress curve.
(§6) The complete set of progress curves for one enzyme with all inhibitor concentrations was subjected to numerical integration with the program Kintek Global Kinetic Explorer (Kintek Corp, Snowshoe Pa.) to obtain a best-fit to the mechanism shown in Scheme 10.
(§7) where E, S, ES, P, I, and EI are the concentrations of the enzyme, nitrocefin, the enzyme-nitrocefin complex, the nitrocefin hydrolysis product, INHIBITOR, and the enzyme-INHIBITOR complex respectively. […] The values of k+2, k+3, and k−3 were fit. Concentration series offsets of the absorbance measurements were used to correct for slight absorbance baseline differences between wells. The parameter k+3 is equivalent to the second order rate constant kinact/Ki. In some cases, the inhibition was in rapid equilibrium on the experimental time scale, so that only the ratio k−3/k+3=Ki could be determined. Although k−3 represents reversal of inhibitor binding in Scheme 10, hydrolysis of the enzyme-inhibitor complex could not be excluded based on kinetic measurements.
(§8) Best-fit absorbance values from the above procedure at each time point for each compound concentration were exported to Excel.
(§9) where A is the best-fit absorbance without inhibitor and Ainhib is the best-fit absorbance in the presence of the inhibitor.
(§10) where [I] is the inhibitor concentration and n is the Hill coefficient. The Excel add-in XLfit (ID Business Solutions) was used for nonlinear regression.

[7] = target: OXA-48 (Class D beta-lactamase) (Klebsiella pneumoniae, UniProt Q6XEC0); test: Inhibition of beta-lactamase enzymes (nitrocefin hydrolysis), OXA-48; assay type: biochemical; conditions: read-out: Class D OXA-48 60 min IC50, nitrocefin 100 μM
OXA-48 (Class D beta-lactamase), sequence (Q6XEC0 whole entry, looked up, species assumed): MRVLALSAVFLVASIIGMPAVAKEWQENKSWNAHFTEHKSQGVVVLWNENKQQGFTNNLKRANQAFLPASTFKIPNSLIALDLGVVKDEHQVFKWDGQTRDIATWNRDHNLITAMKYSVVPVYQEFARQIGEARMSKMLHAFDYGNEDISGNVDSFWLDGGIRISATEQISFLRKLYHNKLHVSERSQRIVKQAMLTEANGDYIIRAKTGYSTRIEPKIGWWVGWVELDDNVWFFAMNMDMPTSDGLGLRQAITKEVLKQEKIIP
Description: as §5, §6, §7, §8, §9, §10

[8] = s9, pH 7.4, read-out: T1/2 Rat Liver S9
[9] = s9, pH 7.4, read-out: T1/2 Human Liver S9
[10] = s9, pH 7.4, read-out: T1/2 Human Intestinal S9
[11] = s9, pH 7.4, read-out: T1/2 Rat Intestinal S9
[12] = liver S9, pH 7.4, read-out: T1/2 Rat Liver S9
[13] = liver S9, pH 7.4, read-out: T1/2 Human Liver S9
[14] = intestinal S9 (without PMSF), pH 7.4, read-out: T1/2 Human Intestinal S9
[15] = intestinal S9, pH 7.4, read-out: T1/2 Rat Intestinal S9

Structure (SMILES): CCOC(=O)[C@@H](F)ON1C(=O)N2C[C@H]1C=C(C)[C@H]2C(N)=O [Example 1, (R)-ethyl 2-((2S,5R)-2-carbamoyl-3-methyl-7-oxo-1,6-diazabicyclo[3.2.1]oct-3-en-6-yloxy)-2-fluoroacetate]
- half-life at 10 μM [1, 8]: 4.4 min
- half-life at 10 μM ([2]; buffer): 41 min
- half-life at 10 μM [3, 9]: 6.5 min
- half-life at 10 μM [4, 10]: 38 min
- half-life at 10 μM [5, 11]: 39 min

Structure (SMILES): CCOC(=O)[C@H](F)ON1C(=O)N2C[C@H]1C=C(C)[C@H]2C(N)=O [Example 2, (S)-ethyl 2-((2S,5R)-2-carbamoyl-3-methyl-7-oxo-1,6-diazabicyclo[3.2.1]oct-3-en-6-yloxy)-2-fluoroacetate]
- half-life at 10 μM [1, 8]: 1.4 min
- half-life at 10 μM ([2]; buffer): 29 min
- half-life at 10 μM [3, 9]: 1.9 min
- half-life at 10 μM [4, 10]: 21 min
- half-life at 10 μM [5, 11]: 24 min

- half-life at 10 μM [1, 12]: 0.5 min
- half-life at 10 μM ([2]; HEPES buffer without enzyme): 3.9 min
- half-life at 10 μM [3, 13]: 0.8 min
- half-life at 10 μM [4, 14]: 2.4 min
- half-life at 10 μM [5, 15]: 3.9 min
Structure (SMILES): CCOC(=O)C(F)(F)ON1C(=O)N2C[C@H]1C=C(C)[C@H]2C(N)=O [Example 7, ethyl {[(2S,5R)-2-carbamoyl-3-methyl-7-oxo-1,6-diazabicyclo[3.2.1]oct-3-en-6-yl]oxy}(difluoro)acetate]

- half-life at 10 μM [1, 12]: 1.4 min
- half-life at 10 μM ([2]; HEPES buffer without enzyme): 18.3 min
- half-life at 10 μM [3, 13]: 2.9 min
- half-life at 10 μM [4, 14]: 17.8 min
- half-life at 10 μM [5, 15]: 27.3 min
Structure (SMILES): CCOC(=O)CON1C(=O)N2C[C@H]1C=C(C)[C@H]2C(N)=O [Example 9, ethyl {[(2S,5R)-2-carbamoyl-3-methyl-7-oxo-1,6-diazabicyclo[3.2.1]oct-3-en-6-yl]oxy}acetate]

- half-life at 10 μM ([2]; HEPES buffer without enzyme): 55 min
- half-life at 10 μM [3, 13]: 1 min
- half-life at 10 μM [4, 14]: 44 min
Structure (SMILES): CC1=C[C@@H]2CN(C(=O)N2O[C@@H](F)C(=O)OC(C)C)[C@@H]1C(N)=O [Example 13, propan-2-yl (2S)-{[(2S,5R)-2-carbamoyl-3-methyl-7-oxo-1,6-diazabicyclo[3.2.1]oct-3-en-6-yl]oxy}(fluoro)ethanoate]

- half-life at 10 μM [1, 12]: 1.5 min
- half-life at 10 μM ([2]; HEPES buffer without enzyme): 98 min
- half-life at 10 μM [3, 13]: 12.4 min
- half-life at 10 μM [4, 14]: > 100 min
- half-life at 10 μM [5, 15]: > 100 min
Structure (SMILES): CC1=C[C@@H]2CN(C(=O)N2O[C@H](F)C(=O)OC(C(C)C)C(C)C)[C@@H]1C(N)=O [Example 15, 2,4-dimethylpentan-3-yl (2R)-{[(2S,5R)-2-carbamoyl-3-methyl-7-oxo-1,6-diazabicyclo[3.2.1]oct-3-en-6-yl]oxy}(fluoro)ethanoate]

- half-life at 10 μM [1, 12]: 7 min
- half-life at 10 μM ([2]; HEPES buffer without enzyme): 18 min
- half-life at 10 μM [3, 13]: 9.2 min
- half-life at 10 μM [4, 14]: 15 min
- half-life at 10 μM [5, 15]: 16 min
Structure (SMILES): COCCOC(=O)[C@@H](F)ON1C(=O)N2C[C@H]1C=C(C)[C@H]2C(N)=O [Example 18, 2-methoxyethyl (2R)-{[(2S,5R)-2-carbamoyl-3-methyl-7-oxo-1,6-diazabicyclo[3.2.1]oct-3-en-6-yl]oxy}(fluoro)ethanoate]

Structure (SMILES): CCC(CC)OC(=O)[C@@H](F)ON1C(=O)N2C[C@H]1C=C(C)[C@H]2C(N)=O [Example 24, (R)-pentan-3-yl 2-((2S,5R)-2-carbamoyl-3-methyl-7-oxo-1,6-diazabicyclo[3.2.1]oct-3-en-6-yloxy)-2-fluoroacetate]
- half-life at 10 μM ([2]; buffer): > 100 min
- half-life at 10 μM [3, 9]: 9 min
- half-life at 10 μM [4, 10]: 34 min

Structure (SMILES): CC1=C[C@@H]2CN(C(=O)N2O[C@@H](F)C(=O)O)[C@@H]1CN [Example 77, (2S)-2-[[(2S,5R)-2-(aminomethyl)-3-methyl-7-oxo-1,6-diazabicyclo[3.2.1]oct-3-en-6-yl]oxy]-2-fluoro-acetic acid]
- IC50 [6]: > 100 µM
- IC50 [7]: > 100 µM

Structure (SMILES): CC(=O)NC[C@@H]1C(C)=C[C@@H]2CN1C(=O)N2O[C@@H](F)C(=O)O [Example 78, (2S)-2-[[(2S,5R)-2-(acetamidomethyl)-3-methyl-7-oxo-1,6-diazabicyclo[3.2.1]oct-3-en-6-yl]oxy]-2-fluoro-acetic acid lithium salt]
- IC50 [6]: 3.6 µM
- IC50 [7]: 0.69 µM

Structure (SMILES): CC1=C[C@@H]2CN(C(=O)N2O[C@@H](F)C(=O)O)[C@@H]1CNC(=O)C(F)(F)F [Example 79, (2S)-2-fluoro-2-[[(2S,5R)-3-methyl-7-oxo-2-[[(2,2,2-trifluoroacetyl)-aminolmethyl]-1,6-diazabicyclo[3.2.1]oct-3-en-6-yl]oxy]acetic acid lithium salt]
- IC50 [6]: 4.2 µM
- IC50 [7]: 5.7 µM

Structure (SMILES): CC1=C[C@@H]2CN(C(=O)N2O[C@@H](F)C(=O)O)[C@@H]1C(=O)NCC#N [Example 82, (2S)-2-fluoro-2-[[(2S,5R)-2-(cyanomethylcarbamoyl)-3-methyl-7-oxo-1,6-diazabicyclo[3.2.1]oct-3-en-6-yl]oxy]acetic acid lithium salt]
- IC50 [6]: 0.085 µM
- IC50 [7]: 0.028 µM

Structure (SMILES): CC1=C[C@@H]2CN(C(=O)N2O[C@@H](F)C(=O)O)[C@@H]1C(=O)NCO [Example 87, (2S)-2-fluoro-2-[[(2S,5R)-2-(hydroxymethylcarbamoyl)-3-methyl-7-oxo-1,6-diazabicyclo[3.2.1]oct-3-en-6-yl]oxy]acetic acid lithium salt]
- IC50 [6]: 0.15 µM
- IC50 [7]: 0.011 µM

Structure (SMILES): CC(=O)NCNC(=O)[C@@H]1C(C)=C[C@@H]2CN1C(=O)N2O[C@@H](F)C(=O)O [Example 88, (2S)-2-fluoro-2-[[(2S,5R)-2-(acetamidomethylcarbamoyl)-3-methyl-7-oxo-1,6-diazabicyclo[3.2.1]oct-3-en-6-yl]oxy]acetic acid lithium salt]
- IC50 [6]: 0.054 µM
- IC50 [7]: 0.045 µM

Structure (SMILES): CC1=C[C@@H]2CN(C(=O)N2O[C@@H](F)C(=O)O)[C@@H]1C(=O)NCNS(N)(=O)=O [Example 89, lithium salt]
- IC50 [6]: 0.033 µM
- IC50 [7]: 0.15 µM

Structure (SMILES): CC1=C[C@@H](C(N)=O)N2C[C@@H]1N(OC(F)(F)C(=O)O)C2=O [Example 91, 2-(((2S,5R)-2-carbamoyl-4-methyl-7-oxo-1,6-diazabicyclo[3.2.1]oct-3-en-6-yl)oxy)-2,2-difluoroacetic acid lithium salt]
- IC50 [6]: 0.00047 µM
- IC50 [7]: 0.018 µM

Structure (SMILES): CCOC(=O)[C@@H](F)ON1C(=O)N2C[C@H]1C(C)=C[C@H]2C#N [Example 94, ethyl (2R)-2-(((2S,5R)-2-cyano-4-methyl-7-oxo-1,6-diazabicyclo[3.2.1]oct-3-en-6-yl)oxy)-2-fluoroacetate]
- half-life at 10 μM [1, 8]: 1.3 min
- half-life at 10 μM ([2]; buffer): 46.9 min
- half-life at 10 μM [4, 10]: 10.6 min
- half-life at 10 μM [5, 11]: 25.9 min

Structure (SMILES): CC1=C[C@@H](C#N)N2C[C@@H]1N(O[C@H](F)C(=O)O)C2=O [Example 95, (2R)-2-(((2S,5R)-2-cyano-4-methyl-7-oxo-1,6-diazabicyclo[3.2.1]oct-3-en-6-yl)oxy)-2-fluoroacetic acid lithium salt]
- IC50 [6]: 0.035 µM
- IC50 [7]: 0.0013 µM

From patent US10800778B2 (Entasis Therapeutics Limited, priority 2016, dated 2020)
